Assay [1] addresses Anti-thrombin (AT3/SERPINC1) (Homo sapiens, UniProt P01008). Description: SERPIN inhibition selectivity, similar enzymatic method. Conditions: Ser protease: Thrombin, factor Xa. The format is biochemical. As to the method: (§1) Inhibitory effect of IMD-4690 on the activity of PAI-1 was measured by the direct tPA assay. Briefly, recombinant tPA and PAI-1 was mixed with IMD-4690, and then tPA substrate with fluorescent pigment (Pyr-Gly-Arg-MCA) was added in this mixture and incubated. The enzymatic activity was calculated by measuring the fluorescence. The inhibitory activity of IMD-4690 on other enzymes was measured with the similar method.

Assay [2] has as its target T1, Heparin Cofactor 2 (HC2/SERPIND1) (Homo sapiens, UniProt P05546).
T1 sequence (P05546 20-499): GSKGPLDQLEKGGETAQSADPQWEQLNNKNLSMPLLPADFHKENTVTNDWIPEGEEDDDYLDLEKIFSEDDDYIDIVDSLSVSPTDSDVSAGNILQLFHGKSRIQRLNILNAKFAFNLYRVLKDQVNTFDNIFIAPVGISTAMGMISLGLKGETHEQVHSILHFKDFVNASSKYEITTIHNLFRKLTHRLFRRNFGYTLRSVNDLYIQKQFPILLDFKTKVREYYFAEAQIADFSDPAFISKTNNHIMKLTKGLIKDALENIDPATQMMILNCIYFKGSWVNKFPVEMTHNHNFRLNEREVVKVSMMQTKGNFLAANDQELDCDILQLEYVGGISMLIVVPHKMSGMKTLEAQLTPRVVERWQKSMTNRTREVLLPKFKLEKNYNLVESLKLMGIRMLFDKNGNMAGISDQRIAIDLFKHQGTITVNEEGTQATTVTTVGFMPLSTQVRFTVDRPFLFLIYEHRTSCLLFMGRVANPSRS
The description is as above. The following applies: Ser protease: Thrombin. The format is biochemical. The protocol:
as §1

Another assay has as its target PAI-2 (SERPINB2) (Homo sapiens, UniProt P05120). Described as above. The format is biochemical. The following applies: Ser protease: uPA. As to the method: as §1
The target of assay [3] is T2, PAI-3 (Protein C inhibitor/SERPINA5) (Homo sapiens, UniProt P05154).
T2 sequence (P05154 26-406): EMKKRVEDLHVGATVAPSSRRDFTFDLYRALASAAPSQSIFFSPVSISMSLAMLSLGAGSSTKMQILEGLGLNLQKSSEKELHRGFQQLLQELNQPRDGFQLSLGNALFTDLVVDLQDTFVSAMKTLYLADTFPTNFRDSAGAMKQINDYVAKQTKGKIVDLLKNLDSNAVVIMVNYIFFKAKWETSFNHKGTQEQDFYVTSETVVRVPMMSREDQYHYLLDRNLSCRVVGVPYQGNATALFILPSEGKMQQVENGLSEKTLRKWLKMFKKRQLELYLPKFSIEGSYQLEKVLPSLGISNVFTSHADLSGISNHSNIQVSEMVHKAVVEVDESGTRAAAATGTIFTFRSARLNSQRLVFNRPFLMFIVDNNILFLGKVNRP
Described as above. Conditions: Ser protease: uPA. The format is biochemical. The protocol:
as §1

Assay [4] has as its target T3, α1-anti-chymotrypsin (SERPINA3) (Homo sapiens, UniProt P01011).
T3 sequence (P01011 24-423): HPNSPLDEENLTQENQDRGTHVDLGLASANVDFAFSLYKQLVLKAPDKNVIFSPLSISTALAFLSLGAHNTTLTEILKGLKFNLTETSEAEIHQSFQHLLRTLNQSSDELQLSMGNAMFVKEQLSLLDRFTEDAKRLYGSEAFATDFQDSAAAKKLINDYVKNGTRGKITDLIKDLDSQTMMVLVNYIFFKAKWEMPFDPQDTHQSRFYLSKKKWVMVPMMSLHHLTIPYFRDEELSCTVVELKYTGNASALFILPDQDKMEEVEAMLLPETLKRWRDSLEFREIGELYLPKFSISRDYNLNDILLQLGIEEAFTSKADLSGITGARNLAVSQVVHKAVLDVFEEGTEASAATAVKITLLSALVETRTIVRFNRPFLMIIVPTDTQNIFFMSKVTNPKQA
The description is as above. The format is biochemical. The following applies: Ser protease: Chymotrypsin, Cathepsin G. The protocol: as §1

For assay [5], the target named is T4, α1-anti-plasmin (SERPINF2) (Homo sapiens, UniProt P08697).
T4 sequence (P08697 40-491): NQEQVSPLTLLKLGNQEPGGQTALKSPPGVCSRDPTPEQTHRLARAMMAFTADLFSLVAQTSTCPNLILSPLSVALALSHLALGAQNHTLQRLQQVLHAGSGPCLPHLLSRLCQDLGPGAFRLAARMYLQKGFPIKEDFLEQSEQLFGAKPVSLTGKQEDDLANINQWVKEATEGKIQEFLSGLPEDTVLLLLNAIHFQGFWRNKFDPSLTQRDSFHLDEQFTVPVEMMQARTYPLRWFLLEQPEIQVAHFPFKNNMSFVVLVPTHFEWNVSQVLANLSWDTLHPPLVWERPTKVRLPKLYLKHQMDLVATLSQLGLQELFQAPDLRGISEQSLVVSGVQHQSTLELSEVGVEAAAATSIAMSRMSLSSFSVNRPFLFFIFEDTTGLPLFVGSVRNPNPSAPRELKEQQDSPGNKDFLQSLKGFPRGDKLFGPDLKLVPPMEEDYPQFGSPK
Described as above. In kind it is biochemical. The following applies: Ser protease: Plasmin. As to the method:
as §1

Assay [6] concerns the target α1-anti-trypsin (SERPINA1) (Homo sapiens, UniProt P01009). Described as above. In kind it is biochemical. The following applies: Ser protease: Trypsin, Neu-Elastase. As to the method:
as §1

For assay [7], the system named is chronic allergen exposure model of bronchial asthma in mice. Description: BALF cell classification, chronic Dp asthma model. In kind it is in vivo, mouse. The following applies: 10 mg/kg i.p., vs Dp/CMC mice. The protocol:
All mice were sensitized on days 0 and 7 by intraperitoneal injections of 10 μg of Dp dissolved in 500 μL saline and mixed with 1mg of Alum (Sigma-Aldrich Japan). Dp-sensitized mice were challenged intranasally with 10 μg (10 μL) Dp in 70 μL saline on alternate days, 3 days per week, from days 14 to 67. The mice were also treated intraperitoneally with IMD-4690 (10 mg/kg) (Dp/IMD group) or CMC alone (Dp/CMC group) at the same day with Dp challenge. As a control, mice were challenged with saline and given CMC during this period (control/CMC group) (Fig. 1A). Each experiment was performed using six mice per group.
After measurement of lung resistance, the mice were euthanized humanely by cutting the axillary artery to obtain serum samples. Following sacrifice, bronchoalveolar lavage was performed twice with saline (0.8 mL) by using a soft cannula. After counting the cell numbers in the BALF using the automated cell viability analyzer Vi-Cell (Beckman Coulter, Calif., USA), BALF samples were cytospun onto glass slides and stained with Diff-Quick (Baxter, Miami, Fla., USA) for classification.

pIC50: −log10 of the molar value.

Sequence of α1-anti-trypsin (SERPINA1) (P01009 25-418): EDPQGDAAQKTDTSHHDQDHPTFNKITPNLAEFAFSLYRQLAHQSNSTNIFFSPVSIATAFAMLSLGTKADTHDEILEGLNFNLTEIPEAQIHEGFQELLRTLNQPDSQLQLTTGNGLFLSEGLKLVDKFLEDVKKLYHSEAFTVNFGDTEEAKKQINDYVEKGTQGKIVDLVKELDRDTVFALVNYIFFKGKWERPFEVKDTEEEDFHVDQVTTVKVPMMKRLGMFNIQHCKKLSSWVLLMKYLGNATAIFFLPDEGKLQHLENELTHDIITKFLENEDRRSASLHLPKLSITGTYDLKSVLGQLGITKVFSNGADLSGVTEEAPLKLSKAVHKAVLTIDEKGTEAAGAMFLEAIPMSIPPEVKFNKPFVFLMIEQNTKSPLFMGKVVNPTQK
Sequence of Anti-thrombin (AT3/SERPINC1) (P01008 33-464): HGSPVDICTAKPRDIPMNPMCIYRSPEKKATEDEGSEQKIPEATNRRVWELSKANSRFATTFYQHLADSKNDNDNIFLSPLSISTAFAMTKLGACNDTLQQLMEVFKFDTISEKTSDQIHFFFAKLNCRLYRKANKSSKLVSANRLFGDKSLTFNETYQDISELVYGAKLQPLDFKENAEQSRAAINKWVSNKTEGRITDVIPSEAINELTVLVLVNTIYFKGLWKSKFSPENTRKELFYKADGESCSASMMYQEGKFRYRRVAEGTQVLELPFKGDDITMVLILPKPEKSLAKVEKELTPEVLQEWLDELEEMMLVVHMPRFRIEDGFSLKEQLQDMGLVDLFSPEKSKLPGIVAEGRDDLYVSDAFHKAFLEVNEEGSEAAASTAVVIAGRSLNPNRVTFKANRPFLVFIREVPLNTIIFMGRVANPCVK
Sequence of PAI-2 (SERPINB2) (P05120 whole entry): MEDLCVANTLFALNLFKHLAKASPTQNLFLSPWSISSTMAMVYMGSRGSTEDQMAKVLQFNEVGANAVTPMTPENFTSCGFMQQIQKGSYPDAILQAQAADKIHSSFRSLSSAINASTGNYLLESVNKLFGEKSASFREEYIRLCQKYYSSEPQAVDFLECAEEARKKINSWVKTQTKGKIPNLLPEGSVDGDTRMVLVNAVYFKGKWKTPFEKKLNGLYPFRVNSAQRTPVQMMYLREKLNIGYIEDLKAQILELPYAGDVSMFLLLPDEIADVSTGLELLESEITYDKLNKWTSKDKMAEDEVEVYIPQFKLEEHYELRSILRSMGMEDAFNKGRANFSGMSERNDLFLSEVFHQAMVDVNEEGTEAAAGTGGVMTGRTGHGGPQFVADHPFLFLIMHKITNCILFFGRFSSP

As to `CC(C)(C)c1ccc(Oc2cc(-c3ccc(OC(F)(F)F)cc3)ccc2OCC(=O)O)cc1` [IMD-4690, 2-[[3-(4-tert-Butylphenoxy)-4'-(trifluoromethoxy) [1,1'-biphenyl]-4-yl]oxy] acetic acid], the pIC50 (in assay [1]; in assay [2]; against PAI-2 (SERPINB2); in assay [3]; in assay [4]; in assay [5]) was < 4.60 each time. The pIC50 (in general, the negative decadic logarithm of the IC50, by convention in mol/L) in assay [6] was < 4.60. Further, in assay [7], the “Number of eosinophils in BALF” value is given as “significantly decreased”. Also, in assay [7], the “Number of lymphocytes in BALF” value is “significantly decreased”.

For the origin of these results see paper PMC4364779, “IMD-4690, a Novel Specific Inhibitor for Plasminogen Activator Inhibitor-1, Reduces Allergic Airway Remodeling in a Mouse Model of Chronic Asthma via Regulating Angiogenesis and Remodeling-Related Mediators” (PLoS ONE, 2015).
